In general, inhibition refers to the change of the read-out against control, counted positive when it falls.

Test [1] has as its target T1, Aurora kinase A (Homo sapiens) (UniProt O14965).
T1 sequence (whole entry): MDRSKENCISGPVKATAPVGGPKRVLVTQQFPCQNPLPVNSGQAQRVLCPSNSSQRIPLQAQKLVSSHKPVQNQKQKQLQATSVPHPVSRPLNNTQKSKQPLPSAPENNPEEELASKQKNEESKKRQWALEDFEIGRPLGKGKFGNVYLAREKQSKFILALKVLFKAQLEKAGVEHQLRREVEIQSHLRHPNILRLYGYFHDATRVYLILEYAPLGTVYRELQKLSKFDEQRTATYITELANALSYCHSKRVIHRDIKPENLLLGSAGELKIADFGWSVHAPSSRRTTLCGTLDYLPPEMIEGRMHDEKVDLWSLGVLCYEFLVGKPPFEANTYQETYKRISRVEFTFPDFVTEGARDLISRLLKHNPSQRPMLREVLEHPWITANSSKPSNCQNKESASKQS
Kind of test: Inhibition of AURKA (unknown origin) at 500 nM.

In test [2] the target is Serine/threonine-protein kinase B-raf (Homo sapiens) (UniProt P15056). The test is described as follows: Inhibition of BRAF (unknown origin) at 500 nM.
The target in test [3] is Macrophage colony-stimulating factor 1 receptor (Homo sapiens) (UniProt P07333). Kind of test: Inhibition of CSF1R (unknown origin) at 500 nM.
The target in test [4] is Receptor tyrosine-protein kinase erbB-2 (Homo sapiens) (UniProt P04626). The test is described as follows: Inhibition of ERBB2 (unknown origin) at 500 nM.
The target in test [5] is Receptor tyrosine-protein kinase erbB-4 (Homo sapiens) (UniProt Q15303). Kind of test: Inhibition of ERBB4 (unknown origin) at 500 nM.
Test [6] has as its target Tyrosine-protein kinase Fer (Homo sapiens) (UniProt P16591). The test is described as follows: Inhibition of FER (unknown origin) at 500 nM.
Test [7] deals with Fibroblast growth factor receptor 1 (Homo sapiens) (UniProt P11362). Kind of test: Inhibition of FGFR1 (unknown origin) at 500 nM.
Test [8] deals with Tyrosine-protein kinase Fgr (Homo sapiens) (UniProt P09769). The test is described as follows: Inhibition of FGR (unknown origin) at 500 nM.
The target in test [9] is Vascular endothelial growth factor receptor 3 (Homo sapiens) (UniProt P35916). The test is described as follows: Inhibition of FLT4 (unknown origin) at 500 nM.
Test [10] concerns the target Glycogen synthase kinase-3 beta (Homo sapiens) (UniProt P49841). The test is described as follows: Inhibition of GSK3B (unknown origin) at 500 nM.
The target of test [11] is Vascular endothelial growth factor receptor 2 (Homo sapiens) (UniProt P35968). Kind of test: Inhibition of KDR (unknown origin) at 500 nM.
Test [12] has as its target Mast/stem cell growth factor receptor Kit (Homo sapiens) (UniProt P10721). Kind of test: Inhibition of KIT (unknown origin) at 500 nM.
In test [13] the target is Tyrosine-protein kinase Lyn (Homo sapiens) (UniProt P07948). Kind of test: Inhibition of LYN A (unknown origin) at 500 nM.
The target in test [14] is Mitogen-activated protein kinase 1 (Homo sapiens) (UniProt P28482). Kind of test: Inhibition of MAPK1 (unknown origin) at 500 nM.
For test [15], the target named is T2, Serine/threonine-protein kinase Nek1 (Homo sapiens) (UniProt Q96PY6).
T2 sequence (whole entry): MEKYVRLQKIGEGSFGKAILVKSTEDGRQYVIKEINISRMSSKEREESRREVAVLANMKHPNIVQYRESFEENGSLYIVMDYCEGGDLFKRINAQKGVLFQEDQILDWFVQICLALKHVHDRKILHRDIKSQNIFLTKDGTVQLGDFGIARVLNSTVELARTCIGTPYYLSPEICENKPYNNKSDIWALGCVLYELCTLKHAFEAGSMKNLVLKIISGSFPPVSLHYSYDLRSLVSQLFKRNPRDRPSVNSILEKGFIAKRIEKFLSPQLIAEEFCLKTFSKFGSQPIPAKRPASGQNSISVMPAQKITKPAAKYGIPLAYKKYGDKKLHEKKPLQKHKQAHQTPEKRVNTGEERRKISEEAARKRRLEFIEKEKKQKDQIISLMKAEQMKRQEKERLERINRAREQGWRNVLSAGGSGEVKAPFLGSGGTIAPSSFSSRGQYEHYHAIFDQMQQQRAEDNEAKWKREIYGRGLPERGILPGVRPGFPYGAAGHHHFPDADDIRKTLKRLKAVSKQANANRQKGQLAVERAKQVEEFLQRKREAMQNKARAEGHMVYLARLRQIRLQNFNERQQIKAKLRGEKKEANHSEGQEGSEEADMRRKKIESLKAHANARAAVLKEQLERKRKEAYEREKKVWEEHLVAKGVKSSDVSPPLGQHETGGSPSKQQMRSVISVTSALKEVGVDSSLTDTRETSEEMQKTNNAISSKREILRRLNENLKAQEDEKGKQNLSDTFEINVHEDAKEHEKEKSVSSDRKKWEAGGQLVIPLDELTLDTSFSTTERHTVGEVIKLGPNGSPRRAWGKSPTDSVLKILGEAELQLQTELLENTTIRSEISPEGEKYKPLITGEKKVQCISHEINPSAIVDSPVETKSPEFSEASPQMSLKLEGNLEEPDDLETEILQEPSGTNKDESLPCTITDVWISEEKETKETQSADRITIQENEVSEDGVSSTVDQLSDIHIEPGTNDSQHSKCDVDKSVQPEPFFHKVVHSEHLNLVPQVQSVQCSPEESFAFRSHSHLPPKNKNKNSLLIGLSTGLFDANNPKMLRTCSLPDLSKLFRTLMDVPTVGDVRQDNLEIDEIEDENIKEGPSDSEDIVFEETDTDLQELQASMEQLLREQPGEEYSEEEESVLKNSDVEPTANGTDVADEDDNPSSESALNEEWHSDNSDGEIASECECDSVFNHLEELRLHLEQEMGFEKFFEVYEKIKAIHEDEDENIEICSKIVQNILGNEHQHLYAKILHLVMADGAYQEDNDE
Kind of test: Inhibition of NEK1 (unknown origin) at 500 nM.

The target of test [16] is Platelet-derived growth factor receptor alpha (Homo sapiens) (UniProt P16234). The test is described as follows: Inhibition of PDGFRA (unknown origin) at 500 nM.
The target in test [17] is Platelet-derived growth factor receptor beta (Homo sapiens) (UniProt P09619). The test is described as follows: Inhibition of PDGFRB (unknown origin) at 500 nM.
Test [18] has as its target Serine/threonine-protein kinase PLK1 (Homo sapiens) (UniProt P53350). Kind of test: Inhibition of PLK1 (unknown origin) at 500 nM.
Test [19] concerns the target cAMP-dependent protein kinase catalytic subunit alpha (Homo sapiens) (UniProt P17612). The test is described as follows: Inhibition of PRKACA (unknown origin) at 500 nM.
Test [20] has as its target Protein kinase C beta type (Homo sapiens) (UniProt P05771). The test is described as follows: Inhibition of PRKCB1 (unknown origin) at 500 nM.
The target of test [21] is Proto-oncogene tyrosine-protein kinase receptor Ret (Homo sapiens) (UniProt P07949). The test is described as follows: Inhibition of RET (unknown origin) at 500 nM.
The target in test [22] is Tyrosine-protein kinase Yes (Homo sapiens) (UniProt P07947). Kind of test: Inhibition of YES1 (unknown origin) at 500 nM.

SMILES strings stand for the structures.

Chain of Macrophage colony-stimulating factor 1 receptor (Homo sapiens) (P07333 whole entry): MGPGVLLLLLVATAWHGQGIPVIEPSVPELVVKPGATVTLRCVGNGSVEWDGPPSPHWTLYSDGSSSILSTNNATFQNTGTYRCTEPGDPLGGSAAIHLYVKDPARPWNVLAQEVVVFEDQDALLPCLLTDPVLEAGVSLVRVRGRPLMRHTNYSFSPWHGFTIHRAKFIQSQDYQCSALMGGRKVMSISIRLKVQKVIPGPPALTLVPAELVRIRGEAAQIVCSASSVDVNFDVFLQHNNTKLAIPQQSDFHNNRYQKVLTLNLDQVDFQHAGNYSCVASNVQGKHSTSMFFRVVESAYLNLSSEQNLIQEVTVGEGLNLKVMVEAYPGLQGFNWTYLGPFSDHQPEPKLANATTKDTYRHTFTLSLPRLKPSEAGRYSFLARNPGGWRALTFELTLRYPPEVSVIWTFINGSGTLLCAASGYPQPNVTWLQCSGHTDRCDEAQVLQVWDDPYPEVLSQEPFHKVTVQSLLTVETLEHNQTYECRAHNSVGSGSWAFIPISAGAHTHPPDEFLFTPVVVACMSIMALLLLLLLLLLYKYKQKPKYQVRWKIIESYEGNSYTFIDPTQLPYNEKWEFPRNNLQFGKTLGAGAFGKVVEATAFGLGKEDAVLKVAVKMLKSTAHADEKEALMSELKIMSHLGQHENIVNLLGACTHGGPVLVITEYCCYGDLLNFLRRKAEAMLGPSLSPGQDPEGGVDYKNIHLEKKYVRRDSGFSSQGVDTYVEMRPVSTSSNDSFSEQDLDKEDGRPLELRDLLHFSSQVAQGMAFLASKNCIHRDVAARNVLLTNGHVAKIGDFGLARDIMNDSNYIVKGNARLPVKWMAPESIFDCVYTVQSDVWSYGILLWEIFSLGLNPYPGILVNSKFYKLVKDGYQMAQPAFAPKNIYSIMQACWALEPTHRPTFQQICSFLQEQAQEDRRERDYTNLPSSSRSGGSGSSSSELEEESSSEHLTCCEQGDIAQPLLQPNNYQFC
Chain of Tyrosine-protein kinase Yes (Homo sapiens) (P07947 2-543 limits assumed): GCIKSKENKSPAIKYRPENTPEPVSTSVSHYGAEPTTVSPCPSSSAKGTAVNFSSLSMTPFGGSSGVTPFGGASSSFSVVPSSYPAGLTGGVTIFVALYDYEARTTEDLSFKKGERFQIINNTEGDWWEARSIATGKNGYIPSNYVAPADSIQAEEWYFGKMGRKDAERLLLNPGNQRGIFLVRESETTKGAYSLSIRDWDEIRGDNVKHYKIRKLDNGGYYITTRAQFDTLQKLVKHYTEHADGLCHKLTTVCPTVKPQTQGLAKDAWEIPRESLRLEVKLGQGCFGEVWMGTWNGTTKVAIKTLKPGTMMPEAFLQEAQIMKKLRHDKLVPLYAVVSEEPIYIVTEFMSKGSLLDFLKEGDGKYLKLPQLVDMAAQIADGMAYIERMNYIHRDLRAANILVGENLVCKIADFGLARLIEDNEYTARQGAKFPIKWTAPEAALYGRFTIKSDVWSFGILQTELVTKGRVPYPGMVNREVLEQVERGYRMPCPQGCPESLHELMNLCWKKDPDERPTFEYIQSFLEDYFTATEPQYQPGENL
Chain of Platelet-derived growth factor receptor beta (Homo sapiens) (P09619 whole entry): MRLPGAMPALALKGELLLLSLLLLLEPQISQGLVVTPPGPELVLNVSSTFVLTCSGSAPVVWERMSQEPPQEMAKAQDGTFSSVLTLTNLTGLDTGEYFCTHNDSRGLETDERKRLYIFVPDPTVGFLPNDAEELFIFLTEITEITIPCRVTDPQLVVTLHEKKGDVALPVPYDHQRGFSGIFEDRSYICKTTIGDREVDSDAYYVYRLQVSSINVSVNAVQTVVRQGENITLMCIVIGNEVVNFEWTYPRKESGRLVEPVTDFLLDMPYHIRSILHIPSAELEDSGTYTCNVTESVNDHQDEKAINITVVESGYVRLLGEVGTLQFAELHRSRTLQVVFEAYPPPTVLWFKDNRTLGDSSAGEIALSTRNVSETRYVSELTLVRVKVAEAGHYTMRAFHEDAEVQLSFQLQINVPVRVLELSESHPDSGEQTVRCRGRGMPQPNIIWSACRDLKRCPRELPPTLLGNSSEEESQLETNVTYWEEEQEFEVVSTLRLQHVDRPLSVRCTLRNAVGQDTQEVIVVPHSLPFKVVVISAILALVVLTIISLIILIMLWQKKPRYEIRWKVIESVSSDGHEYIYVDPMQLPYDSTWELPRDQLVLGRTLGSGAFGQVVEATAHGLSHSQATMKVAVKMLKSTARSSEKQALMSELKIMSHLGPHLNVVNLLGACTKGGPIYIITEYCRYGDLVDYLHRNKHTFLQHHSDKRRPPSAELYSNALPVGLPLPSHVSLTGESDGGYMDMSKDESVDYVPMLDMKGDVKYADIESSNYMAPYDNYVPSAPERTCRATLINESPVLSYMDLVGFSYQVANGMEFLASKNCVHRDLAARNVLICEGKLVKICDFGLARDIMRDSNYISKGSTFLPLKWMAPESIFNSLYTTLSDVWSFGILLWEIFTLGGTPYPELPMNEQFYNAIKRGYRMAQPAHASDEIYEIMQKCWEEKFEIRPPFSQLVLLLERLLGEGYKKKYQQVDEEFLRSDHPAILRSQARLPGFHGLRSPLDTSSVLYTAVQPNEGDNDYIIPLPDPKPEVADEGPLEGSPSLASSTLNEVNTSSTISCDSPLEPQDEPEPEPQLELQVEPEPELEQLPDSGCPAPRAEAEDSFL
Chain of Serine/threonine-protein kinase B-raf (Homo sapiens) (P15056 whole entry): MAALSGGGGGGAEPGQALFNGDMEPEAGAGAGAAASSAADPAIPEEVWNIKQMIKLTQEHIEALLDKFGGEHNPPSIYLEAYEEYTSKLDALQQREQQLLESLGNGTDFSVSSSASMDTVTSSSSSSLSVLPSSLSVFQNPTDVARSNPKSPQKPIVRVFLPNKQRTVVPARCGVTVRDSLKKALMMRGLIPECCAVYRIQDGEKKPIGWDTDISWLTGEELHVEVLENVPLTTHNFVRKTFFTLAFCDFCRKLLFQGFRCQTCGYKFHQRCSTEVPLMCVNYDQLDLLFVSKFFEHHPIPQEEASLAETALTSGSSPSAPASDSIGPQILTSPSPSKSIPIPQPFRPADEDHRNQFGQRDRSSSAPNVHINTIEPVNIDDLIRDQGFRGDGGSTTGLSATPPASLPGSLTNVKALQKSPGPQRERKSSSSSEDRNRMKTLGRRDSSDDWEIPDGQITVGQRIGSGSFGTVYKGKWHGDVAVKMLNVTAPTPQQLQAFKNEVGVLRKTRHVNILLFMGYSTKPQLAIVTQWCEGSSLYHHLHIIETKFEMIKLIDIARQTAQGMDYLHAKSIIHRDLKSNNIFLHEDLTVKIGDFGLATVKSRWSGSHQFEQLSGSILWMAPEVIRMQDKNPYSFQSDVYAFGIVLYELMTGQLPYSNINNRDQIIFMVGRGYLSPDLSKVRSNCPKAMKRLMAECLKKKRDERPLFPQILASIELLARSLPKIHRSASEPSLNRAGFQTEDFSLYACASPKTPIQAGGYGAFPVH
Chain of Fibroblast growth factor receptor 1 (Homo sapiens) (P11362 22-822 limits assumed): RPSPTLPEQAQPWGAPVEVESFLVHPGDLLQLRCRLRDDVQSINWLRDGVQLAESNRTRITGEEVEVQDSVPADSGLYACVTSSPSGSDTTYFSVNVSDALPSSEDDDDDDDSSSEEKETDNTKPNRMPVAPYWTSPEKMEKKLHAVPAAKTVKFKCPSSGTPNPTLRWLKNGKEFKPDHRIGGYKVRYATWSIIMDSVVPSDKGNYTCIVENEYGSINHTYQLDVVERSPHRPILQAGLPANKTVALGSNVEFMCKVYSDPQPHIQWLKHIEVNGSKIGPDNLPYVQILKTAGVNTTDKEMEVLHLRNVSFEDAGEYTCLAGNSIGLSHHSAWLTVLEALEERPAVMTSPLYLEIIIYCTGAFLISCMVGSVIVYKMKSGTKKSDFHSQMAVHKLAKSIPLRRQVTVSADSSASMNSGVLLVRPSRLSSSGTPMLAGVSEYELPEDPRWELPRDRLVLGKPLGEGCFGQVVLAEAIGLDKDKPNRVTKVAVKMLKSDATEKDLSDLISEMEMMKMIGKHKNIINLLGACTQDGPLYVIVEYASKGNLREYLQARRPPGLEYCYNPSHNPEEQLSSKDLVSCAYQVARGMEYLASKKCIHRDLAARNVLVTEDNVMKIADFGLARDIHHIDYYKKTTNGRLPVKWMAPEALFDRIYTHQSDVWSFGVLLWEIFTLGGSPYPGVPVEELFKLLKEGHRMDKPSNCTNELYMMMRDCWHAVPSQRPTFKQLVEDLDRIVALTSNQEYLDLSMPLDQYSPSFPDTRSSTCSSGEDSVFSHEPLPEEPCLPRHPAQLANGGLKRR
Chain of Tyrosine-protein kinase Fgr (Homo sapiens) (P09769 2-529 limits assumed): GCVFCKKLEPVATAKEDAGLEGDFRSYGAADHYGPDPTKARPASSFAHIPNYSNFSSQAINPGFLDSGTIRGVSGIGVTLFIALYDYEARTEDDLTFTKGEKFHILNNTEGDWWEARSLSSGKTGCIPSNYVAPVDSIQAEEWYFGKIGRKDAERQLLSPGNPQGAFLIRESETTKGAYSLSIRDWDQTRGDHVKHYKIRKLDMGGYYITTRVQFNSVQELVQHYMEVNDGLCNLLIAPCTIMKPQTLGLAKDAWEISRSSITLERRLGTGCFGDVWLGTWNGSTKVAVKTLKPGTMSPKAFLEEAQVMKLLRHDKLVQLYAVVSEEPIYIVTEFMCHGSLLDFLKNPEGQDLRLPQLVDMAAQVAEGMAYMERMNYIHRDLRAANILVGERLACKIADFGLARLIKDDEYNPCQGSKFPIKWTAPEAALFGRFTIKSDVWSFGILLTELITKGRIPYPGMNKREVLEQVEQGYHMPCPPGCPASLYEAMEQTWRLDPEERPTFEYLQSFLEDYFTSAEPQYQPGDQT
Chain of Mitogen-activated protein kinase 1 (Homo sapiens) (P28482 whole entry): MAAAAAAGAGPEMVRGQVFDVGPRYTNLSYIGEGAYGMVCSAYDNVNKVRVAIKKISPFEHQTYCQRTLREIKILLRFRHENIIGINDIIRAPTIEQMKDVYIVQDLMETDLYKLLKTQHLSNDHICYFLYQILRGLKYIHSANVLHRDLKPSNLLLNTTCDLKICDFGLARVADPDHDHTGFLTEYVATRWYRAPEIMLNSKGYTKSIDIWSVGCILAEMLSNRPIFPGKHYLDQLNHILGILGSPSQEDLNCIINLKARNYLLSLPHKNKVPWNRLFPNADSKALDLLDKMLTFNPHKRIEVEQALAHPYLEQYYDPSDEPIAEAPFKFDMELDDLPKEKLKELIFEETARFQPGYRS

As to `COc1cc(CO)ccc1-c1cc2c(N[C@H](C)c3ccccc3)ncnc2s1`, the inhibition in test [1] stood at 1%; in test [2] it was 1%; in [3] it was 2%; in test [4] it was 57%; in test [5] it was 30%; in test [6], 10%. In addition, the inhibition was determined as 1% in test [7]; 40% in [8]; 3% in test [9]; 7% in test [10]; 12% in test [11]; 7% in test [12]. Besides, the inhibition in [13] is 61%; in test [14], 1%; in test [15], 1%; in test [16], 1%; in [17], 3%; in test [18], 1%. In addition, the inhibition was 2% in test [19], 1% in test [20], 5% in test [21] and 12% in [22].

These data come from ChEMBL document CHEMBL3758163, “Extended structure-activity study of thienopyrimidine-based EGFR inhibitors with evaluation of drug-like properties” (Eur J Med Chem, 2016).
